According to patent US20110053983A1, “(5R)-1,5-DIARYL-4,5-DIHYDRO-1H-PYRAZOLE-3-CARBOXAMIDINE DERIVATIVES HAVING CB1-ANTAGONISTIC ACTIVITY” (priority 2008, published 2011):
“Also recorded” adds a separate entry of the source. Read-outs that look alike come from different tables or passages of the source.

What was measured:
cannabinoid-CB1 receptor = biological target: T1, cannabinoid-CB1 receptor (Rattus norvegicus, UniProt P20272); assay: In vivo CB1 receptor antagonism, CP-55,940-induced hypotension test; details: for ED50: po, CP-55,940 (0.1 mg/kg i.v.) induced hypotension, read-out: CB-agonist induced blood pressure rat ID50; for activity in the in vivo CB1 mediated (CP-55,940-induced) hypotension test, in words: oral administration
T1 construct: Male normotensive rats (225-300 g; Harlan, Horst, The Netherlands) were anaesthetized; from tissue; host or cells: whole animal: male normotensive rats (Harlan)
Procedure: In vivo cannabinoid-CB1 receptor antagonism was assessed with the CP-55,940-induced hypotension test in rat. Male normotensive rats (225-300 g; Harlan, Horst, The Netherlands) were anaesthetized with pentobarbital (80 mg/kg ip). Blood pressure was measured, via a cannula inserted into the left carotid artery, by means of a Spectramed DTX-plus pressure transducer (Spectramed B. V., Bilthoven, The Netherlands). After amplification by a Nihon Kohden Carrier Amplifier (Type AP-621G; Nihon Kohden B. V., Amsterdam, The Netherlands), the blood pressure signal was registered on a personal computer (Compaq Deskpro 386s), by means of a Po-Ne-Mah data-acquisition program (Po-Ne-Mah Inc., Storrs, USA). Heart rate was derived from the pulsatile pressure signal. All compounds were administered orally as a microsuspension in 1% methylcellulose, 30 minutes before induction of the anesthesia, 60 minutes prior to administration of the CB1 receptor agonist CP-55,940. The injection volume was 10 ml/kg. After haemodynamic stabilization the CB1 receptor agonist CP-55,940 (0.1 mg/kg i. v.) was administered and the hypotensive effect established (Wagner, 2001).

[1] = biological target: human cannabinoid CB1 receptor (Homo sapiens, UniProt P21554); assay: In vitro affinity for cannabinoid-CB1 receptors, displacement of [3H]CP-55,940; type: binding
Procedure: In vitro affinity for cannabinoid-CB1 receptors was determined using membrane preparations of Chinese hamster ovary (CHO) cells wherein the human cannabinoid CB1 receptor was stably transfected in conjunction with [^3H]CP-55,940 as radioligand. After incubation of a freshly prepared cell membrane preparation with the [^3H]-ligand, with or without addition of compounds of the invention, separation of bound and free ligand was performed by filtration over glassfiber filters. Radioactivity on the filter was measured by liquid scintillation counting. The binding data were either obtained by CEREP (128, rue Danton, 92500 Rueil-Malmaison, France) or at Solvay Pharmaceuticals B.V. (C. J. van Houtenlaan 36, 1381 C P Weesp, The Netherlands).

human CB1 receptors = human CB1 receptors (Homo sapiens, UniProt P21554); assay: In vitro CB1 receptor antagonism, inhibition of WIN 55,212-2-induced [3H]-arachidonic acid release in CHO cells; type: cell-based; details: for Kb: read-out: functional activity inhibition AA release [3H]-Arachidonic acid pA2 (converted)
Procedure: In vitro cannabinoid-[…] receptor antagonism was assessed with human CB1 receptors cloned in Chinese hamster ovary (CHO) cells. CHO cells were grown in a Dulbecco's Modified Eagle's medium (DMEM) culture medium, supplemented with 10% heat-inactivated fetal calf serum. Medium was aspirated and replaced by DMEM, without fetal calf serum, but containing [^3H]-arachidonic acid and incubated overnight in a cell culture stove (5% CO2/95% air; 37° C.; water-saturated atmosphere). During this period [^3H]-arachidonic acid was incorporated in membrane phospholipids. On the test day, medium was aspirated and cells were washed three times using 0.5 mL DMEM, containing 0.2% bovine serum albumin (BSA). Stimulation of the CB1 receptor by WIN 55,212-2 lead to activation of PLA2 followed by release of [^3H]-arachidonic acid into the medium. This WIN 55,212-2-induced release was concentration-dependently antagonized by CB1 receptor antagonists.

[2] = h-CB1 receptor, CHO cell membranes, read-out: receptor binding displacement [3H]-CP-55,940 pKi (converted)
[3] = (5R) versus (5S)-enantiomer (compound 2)
[4] = h-CB1 receptor in CHO cells, WIN 55,212-2-induced release

T1 sequence (P20272 whole entry): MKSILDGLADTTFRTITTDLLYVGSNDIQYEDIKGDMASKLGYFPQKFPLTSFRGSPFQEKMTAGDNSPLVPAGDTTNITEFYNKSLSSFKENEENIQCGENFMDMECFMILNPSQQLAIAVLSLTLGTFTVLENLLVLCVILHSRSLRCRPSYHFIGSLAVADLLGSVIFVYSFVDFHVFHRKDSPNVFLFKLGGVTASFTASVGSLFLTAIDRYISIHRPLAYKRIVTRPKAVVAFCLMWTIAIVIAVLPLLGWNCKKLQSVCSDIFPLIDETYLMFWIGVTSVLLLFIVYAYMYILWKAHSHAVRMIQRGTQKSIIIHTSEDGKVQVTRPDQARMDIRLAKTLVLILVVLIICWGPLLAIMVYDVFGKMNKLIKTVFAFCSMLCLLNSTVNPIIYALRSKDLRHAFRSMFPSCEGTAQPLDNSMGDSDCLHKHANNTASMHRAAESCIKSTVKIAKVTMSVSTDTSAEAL
Sequence of human CB1 receptors (P21554 whole entry): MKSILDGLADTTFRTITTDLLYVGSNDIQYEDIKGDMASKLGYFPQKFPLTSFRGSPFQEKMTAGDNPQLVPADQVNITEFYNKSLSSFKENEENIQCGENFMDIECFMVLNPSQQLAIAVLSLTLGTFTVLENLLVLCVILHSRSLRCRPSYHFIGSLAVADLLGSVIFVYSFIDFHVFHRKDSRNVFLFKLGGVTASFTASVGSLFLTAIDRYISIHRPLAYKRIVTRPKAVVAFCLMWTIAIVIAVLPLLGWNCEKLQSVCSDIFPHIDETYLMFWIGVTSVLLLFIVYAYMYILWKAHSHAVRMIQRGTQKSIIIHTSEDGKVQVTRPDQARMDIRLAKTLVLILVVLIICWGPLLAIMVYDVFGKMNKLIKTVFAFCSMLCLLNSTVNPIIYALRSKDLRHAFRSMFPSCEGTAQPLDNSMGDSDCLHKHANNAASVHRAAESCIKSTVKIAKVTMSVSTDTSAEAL
Sequence of human cannabinoid CB1 receptor (P21554 whole entry): as above

SMILES	Ki [1, 2] [nM]	activity in the in vivo CB1 mediated (CP-55,940-induced) hypotension test, in words (cannabinoid-CB1 receptor)	ED50 (cannabinoid-CB1 receptor) [mg/kg]	also measured
CN/C(=N\S(=O)(=O)N1CCCCC1)C1=NN(c2ccc(Cl)cc2)C(c2ccccc2)C1 (racemic) [N-[(piperidin-1-yl)-sulfonyl]-N′-methyl-1-(4-chlorophenyl)-5-phenyl-4,5-dihydro-(1H)-pyrazole-3-carboxamidine, reference compound]	–	–	> 30	–
CN=C(NS(=O)(=O)N1CCC(F)(F)CC1)C1=NN(c2ccc(Cl)cc2)C(c2ccccc2F)C1 (racemic) [racemate 2, N-[(4,4-difluoropiperidin-1-yl)sulfonyl]-N′-methyl-1-(4-chlorophenyl)-5-(2-fluorophenyl)-4,5-dihydro-(1H)-pyrazole-3-carboxamidine]	–	–	–	melting point: 166 to 167 °C
CN/C(=N\S(=O)(=O)N1CCC(F)(F)CC1)C1=NN(c2ccc(Cl)cc2)[C@H](c2ccccc2)C1 (single isomer, unassigned) [Compound 2]	251	inactive	> 30	Kb (human CB1 receptors; [4]): 79.4 nM
CN/C(=N\S(=O)(=O)N1CCC(C(F)(F)F)CC1)C1=NN(c2ccc(Cl)cc2)[C@@H](c2ccccc2)C1 [Compound 4, 5R-(+)-N-[(4-(trifluoromethyl)piperidin-1-yl)sulfonyl]-N′-methyl-1-(4-chlorophenyl)-5-phenyl-4,5-dihydro-(1H)-pyrazole-3-carboxamidine]	–	–	–	Ki [1]: 3.16 nM; functional activity inhibition AA release [3H]-Arachidonic acid pA2 (human CB1 receptors; [4]): 9.5
CN/C(=N\S(=O)(=O)N1CCCCC1)C1=NN(c2ccc(Cl)cc2)C(c2ccccc2)C1 (stereo not shown) [EP 1 713 475 Compound 10, reference compound]	–	–	> 30	–

The next lines start with results.

Ki [1, 2] [nM]	activity in the in vivo CB1 mediated (CP-55,940-induced) hypotension test, in words (cannabinoid-CB1 receptor)	SMILES	ED50 (cannabinoid-CB1 receptor) [mg/kg]	also measured
25.1	potent activities	CN=C(NS(=O)(=O)N1CCC(F)(F)CC1)C1=NN(c2ccc(Cl)cc2)C(c2ccccc2)C1 (racemic) [racemate (1 + 2), N-[(4,4-difluoropiperidin-1-yl)sulfonyl]-N′-methyl-1-(4-chlorophenyl)-5-phenyl-4,5-dihydro-(1H)-pyrazole-3-carboxamidine]	9	–
10	active; also recorded: potent activities	CN/C(=N\S(=O)(=O)N1CCC(F)(F)CC1)C1=NN(c2ccc(Cl)cc2)[C@@H](c2ccccc2)C1 (single isomer, unassigned) [Compound 1]	6	affinity for human CB1 receptors relative to the (5S)-enantiomer [1, 3]: 25 fold; antagonist potency (pA2) relative to the (5S)-enantiomer (human CB1 receptors; [3]): 40 times; Kb (human CB1 receptors; [4]): 1.58 nM
15.8	–	CN/C(=N\S(=O)(=O)N1CCC(F)CC1)C1=NN(c2ccc(Cl)cc2)[C@@H](c2ccccc2)C1 [Compound 3, 5R-(+)-N-[(4-fluoropiperidin-1-yl)sulfonyl]-N′-methyl-1-(4-chlorophenyl)-5-phenyl-4,5-dihydro-(1H)-pyrazole-3-carboxamidine]	–	–
